Reference: patent US20210228523A1, “MODULATORS OF SESTRIN-GATOR2 INTERACTION AND USES THEREOF” (Navitor Pharmaceuticals, Inc., priority 2017, published 2021)

Key:
[1] = system: mTORC1; experiment: Western blot of pS6 in rat brain and selected peripheral organs; format: in vivo; conditions: Example D; NV-5138 160 mg/kg oral; 1 hr post-dose
Description: Study Design: Thirty (30) male rats weighing between 175 and 200 g were randomized into 3 study groups (n=10), following a 5-day acclimation period. One hour following dosing rats were sacrificed by conscious decapitation, plasma, brain and selected peripheral tissues were harvested for compound level and WB analysis. Tissues were prepared for WB to quantitate the mTORC1 substrate pS6 as a measure of mTORC1 activity.
The dosing volume based on the weight of the animal (10 mL/kg) was administered by oral gavage. Test articles were prepared the day of dosing.
Tissues Preparations: One hour following dosing rats were sacrificed by conscious decapitation, plasma, brain and peripheral tissues were harvested and immediately frozen in liquid nitrogen. Tissues were thawed and homogenized for 1 min twice using MP homogenizer in Lysis Buffer (Cell lysis buffer: 1% Triton X-100, 50 mM HEPES pH 7.4, 100 mM NaCl, 2 mM EDTA, 10 mM Beta-glycerophosphate, 10 mM Sodium pyrophosphate, and 1 protease inhibitor tab per 50 mL fresh) at 4° C. Lysates were then sonicated on ice for 20 s at 50% amplitude. The protein concentration was determined by Bradford assay and all samples were mixed with loading buffer (50 mM Tris-HCl pH 6.8, 2% SDS, 5% glycerol, 5% β-mercaptoethanol and 0.01% Bromophenol blue) and stored at −20° C. until WB analysis.
Western Blot (WB) Analysis. Equal amounts of each sample (15 μg of total protein) were loaded and separated on NuPAGE 4-12% Bis-Tris gels and transferred to PVDF membrane (Immobilon-FL PVDF membrane, Millipore) using CAPS Buffer (10 mM 3-(Cyclohexylamino)-1-propanesulfonic acid, 12.5% Ethanol pH=10). After transfer, membranes were incubated for 1 hr at room temperature in Odyssey blocking buffer (Licor). After blocking, membranes were incubated at 4° C. overnight with primary antibodies. Primary antibodies used were rabbit anti-[…] (cell signaling; #5364) at 1:1000, mouse anti-GAPDH (Sigma; #G8795) at 1:1000 and mouse anti-a-tubulin (Sigma; #T5168) at 1:10000 in Odyssey blocking buffer. The next day, membranes were washed three times in 1×TBS-Tween (25 mM Tris, pH 7.4, 3.0 mM KCl, 140 mM NaCl and 0.05% Tween-20) and incubated with dye-coupled secondary antibodies (goat anti-mouse IRdye680, and goat anti-rabbit IRdye800 from LI-COR) at 1:20000 in Odyssey blocking buffer for 30 min then wash three times in IX TBS-Tween. Signals were quantified using the Odyssey Infrared Imaging System (LI-COR Bioscience). The resulting densitometric readings were used to generate a ratio of phopho-protein to a-tubulin or GAPDH. The resulting ratio was further normalized to vehicle treated control group.

[2] = system: layer V pyramidal neurons in PFC; experiment: Whole cell patch clamp recording of 5-HT- and Hcrt-induced EPSCs in brain slices after oral dosing; format: in vivo, rat; conditions: Example H, NV-5138 160 mg/kg oral single dose
Description: Study Design: Sixteen (16) male rats weighing between 175 and 200 g were randomized into 2 study groups (n=8), following a 5-day acclimation period. On study day 0, rats received a single dose of either NV vehicle (Veh, 0.5% methylcellulose/0.1% Tween-80) or NV-5138 (160 mg/kg), by oral gavage. On day 1, 24 hrs after dosing, rats were sacrificed, and brain slices were prepared and subjected to whole cell patch clamp recording of layer V pyramidal neurons in PFC.
Preparation of Test Articles: NV-5138 (Navitor, Lot #07) was prepared by dissolving in Veh (0.5% methylcellulose/0.1% Tween-80) at a concentration of 50 mg/mL. The dosing volume based on the weight of the animal (3.2 mL/kg) was administered by oral gavage to study animals. Test articles were prepared the day of dosing.
Brain Slice Preparation: Brain slices were prepared according to published procedures (Liu, R. J. et al., J. Neurosci. 22(21): 9453-9464 (2002)). Briefly, rats were anesthetized with chloral hydrate (400 mg/kg, i.p.), in adherence to protocols approved by the Yale Animal Care and Use Committee. After decapitation, the brains were removed rapidly and placed in ice-cold (4° C.) artificial cerebrospinal fluid (ACSF) in which sucrose (252 mM) was substituted for NaCl (sucrose-ACSF) to prevent cell swelling. A block of tissue containing PFC was dissected and coronal slices (400 μm) were cut in sucrose-ACSF with an oscillating-blade tissue sheer (Leica VT1000S). After placement of the slice in a submerged recording chamber, the bath temperature was raised to 32° C. Known concentrations of drugs dissolved in ACSF, applied through a stopcock arrangement at a fast flow rate (4 mL/min), reached the slice within 7-10 s. […] A recovery period of ˜1-2 h was allowed before commencement of recording.
Electrophysiology Recording. […] Series resistance, monitored throughout the experiment, was usually between 4 and 8 MΩ. […]

CC(C)(C[C@H](N)C(=O)O)C(F)F [NV-5138]
level of pS6 in rat epididymal fat [1]: significantly increased | level of pS6 in rat heart [1]: significantly increased | level of pS6 in rat kidney [1]: significantly increased | level of pS6 in rat tibialis anterior [1]: significantly increased | pS6 levels in liver [1]: not the liver | pS6 levels in rat brain [1]: significant activation of mTORC1 | pS6 levels in testes [1]: significant activation | amplitude of 5-HT- and Hcrt-induced EPSCs (cumulative probability distribution) ([2]; FIG. 31, 24 hrs): on frequency but not amplitude | frequency of 5-HT-induced EPSCs relative to vehicle-treated rats ([2]; 24 hrs after dosing): significantly increased | frequency of Hcrt-induced EPSCs relative to vehicle-treated rats ([2]; 24 hrs after dosing): significantly increased
